Where “and” joins values, the source holds several entries; their conditions need not be identical. Equal values may be shown once. Inconclusive results and toxic doses are left out.
System: CD2F1 mice, intracerebral L1210 leukemia, survival T/C
Assay: NCI In Vivo Anticancer Drug Screen. Data for tumor model L1210 Leukemia (intracerebral) in CD2F1 (CDF1) mice
Conditions: higher = longer survival
Procedure: The antitumor activity of compounds was measured in mice bearing transplantable tumors. Survival or tumor size were measured and the results are expressed as the measurement made in the treated group (T) divided by the measurement made in the vehicle treated control group (C). The tumor model used in this assay is L1210 Leukemia (intracerebral) in CD2F1 (CDF1) mice

[1] = endpoint: median survival time, dose: 32.0 mg/kg/injection, schedule: Q01DX005 (ip), vehicle: saline with Tween-80

Nc1nc(=S)c2ncn(C3CC(O)C(CO)O3)c2[nH]1 (centres undefined)
T/C (endpoint: mean survival time, dose: 2.5 mg/kg/injection, schedule: Q01DX001 (ip), vehicle: steriod suspending solution): 114 % of control
T/C (endpoint: mean survival time, dose: 10.0 mg/kg/injection, schedule: Q01DX001 (ip), vehicle: steriod suspending solution): 118 % of control
T/C (endpoint: mean survival time, dose: 20.0 mg/kg/injection, schedule: Q01DX001 (ip), vehicle: steriod suspending solution): 120 % of control

CC1(C)N=C(N)N=C(N)N1c1ccc(OCc2ccc(C(=O)Nc3cccc(S(=O)(=O)F)c3)cc2)c(Cl)c1
T/C (endpoint: mean survival time, dose: 50.0 mg/kg/injection, schedule: Q04DX003 (ip), vehicle: saline): 111 % of control
T/C (endpoint: mean survival time, dose: 100.0 mg/kg/injection, schedule: Q04DX003 (ip), vehicle: saline): 111 % of control

CS(=O)(=O)CS(=O)(=O)OCCCl
T/C (endpoint: median survival time, dose: 6.25 mg/kg/injection, schedule: Q01DX009 (ip), vehicle: saline): 104 % of control
T/C (endpoint: median survival time, dose: 12.5 mg/kg/injection, schedule: Q01DX009 (ip), vehicle: saline): 112 % of control
T/C (endpoint: median survival time, dose: 50.0 mg/kg/injection, schedule: Q01DX009 (ip), vehicle: saline): 209 % of control

O=C1C=C(N2CC2)C(=O)C=C1N1CC1
T/C (endpoint: mean survival time, dose: 0.12 mg/kg/injection, schedule: Q01DX009 (ip), vehicle: saline): 102 % of control and 103 % of control and 104 % of control
T/C (endpoint: mean survival time, dose: 0.25 mg/kg/injection, schedule: Q01DX009 (ip), vehicle: saline): 102 % of control and 103 % of control and 108 % of control
T/C (endpoint: mean survival time, dose: 0.5 mg/kg/injection, schedule: Q01DX009 (ip), vehicle: saline): 103 % of control and 106 % of control and 108 % of control
T/C (endpoint: mean survival time, dose: 1.0 mg/kg/injection, schedule: Q01DX009 (ip), vehicle: saline): 89 % of control and 90 % of control and 98 % of control

CC[n+]1c(-c2ccccc2)c2cc(N)ccc2c2ccc(N)cc21
T/C (endpoint: median survival time, dose: 12.0 mg/kg/injection, schedule: Q01DX005 (ip), vehicle: saline): 100 % of control
T/C (endpoint: median survival time, dose: 24.0 mg/kg/injection, schedule: Q01DX005 (ip), vehicle: saline): 104 % of control

CN(C)N=Nc1ccc(C(=O)O)cc1
T/C (endpoint: mean survival time, dose: 10.0 mg/kg/injection, schedule: Q01DX007 (ip), vehicle: DMSO): 91 % of control
T/C (endpoint: mean survival time, dose: 20.0 mg/kg/injection, schedule: Q01DX007 (ip), vehicle: DMSO): 96 % of control
T/C (endpoint: mean survival time, dose: 25.0 mg/kg/injection, schedule: Q01DX009 (ip), vehicle: saline): 104 % of control
T/C (endpoint: mean survival time, dose: 40.0 mg/kg/injection, schedule: Q01DX007 (ip), vehicle: DMSO): 108 % of control
T/C (endpoint: mean survival time, dose: 50.0 mg/kg/injection, schedule: Q01DX009 (ip), vehicle: saline): 119 % of control
T/C (endpoint: mean survival time, dose: 80.0 mg/kg/injection, schedule: Q01DX007 (ip), vehicle: DMSO): 122 % of control
T/C (endpoint: mean survival time, dose: 200.0 mg/kg/injection, schedule: Q01DX009 (ip), vehicle: saline): 113 % of control

CN(C)P1(=O)NCCCO1 (centres undefined)
T/C (endpoint: median survival time, dose: 80.0 mg/kg/injection, schedule: Q01DX001 (ip), vehicle: saline): 91 % of control
T/C (endpoint: median survival time, dose: 160.0 mg/kg/injection, schedule: Q01DX001 (ip), vehicle: saline): 90 % of control
T/C (endpoint: median survival time, dose: 320.0 mg/kg/injection, schedule: Q01DX001 (ip), vehicle: saline): 92 % of control
T/C (endpoint: median survival time, dose: 640.0 mg/kg/injection, schedule: Q01DX001 (ip), vehicle: saline): 95 % of control
T/C (endpoint: median survival time, dose: 1280.0 mg/kg/injection, schedule: Q01DX001 (ip), vehicle: saline): 91 % of control

COc1cc2c(c3c1c(=O)c1ccccc1n3C)C=CC(C)(C)O2
T/C (endpoint: median survival time, dose: 128.0 mg/kg/injection, schedule: Q01DX005 (ip), vehicle: Klucel (hydroxypropylcellulose) (HPC)): 108 % of control

CN(Cc1ccccc1)/N=N/c1nc[nH]c1C(N)=O
T/C [1]: 112 % of control
T/C (endpoint: median survival time, dose: 512.0 mg/kg/injection, schedule: Q01DX005 (ip), vehicle: saline with Tween-80): 94 % of control

C[C@]1(O)CC[C@H]2[C@@H]3CCC4=CC(=O)CC[C@]4(C)[C@@]3(F)[C@@H](O)C[C@@]21C
T/C (endpoint: median survival time, dose: 8.0 mg/kg/injection, schedule: Q01DX009 (ip), vehicle: saline with Tween-80): 112 % of control
T/C (endpoint: median survival time, dose: 16.0 mg/kg/injection, schedule: Q01DX009 (ip), vehicle: saline with Tween-80): 112 % of control
T/C (endpoint: median survival time, dose: 32.0 mg/kg/injection, schedule: Q01DX009 (ip), vehicle: saline with Tween-80): 104 % of control
T/C (endpoint: median survival time, dose: 64.0 mg/kg/injection, schedule: Q01DX009 (ip), vehicle: saline with Tween-80): 104 % of control
T/C (endpoint: median survival time, dose: 128.0 mg/kg/injection, schedule: Q01DX009 (ip), vehicle: saline with Tween-80): 122 % of control
T/C (endpoint: median survival time, dose: 256.0 mg/kg/injection, schedule: Q01DX009 (ip), vehicle: saline with Tween-80): 104 % of control
T/C (endpoint: median survival time, dose: 512.0 mg/kg/injection, schedule: Q01DX009 (ip), vehicle: saline with Tween-80): 96 % of control

CCCCCN(C)/N=N/c1nc[nH]c1C(N)=O
T/C (endpoint: median survival time, dose: 16.0 mg/kg/injection, schedule: Q01DX005 (ip), vehicle: saline with Tween-80): 112 % of control
T/C [1]: 122 % of control
T/C (endpoint: median survival time, dose: 256.0 mg/kg/injection, schedule: Q01DX005 (ip), vehicle: saline with Tween-80): 92 % of control
